Measurements from US20220387365A1, “TUCARESOL DERIVATIVES AND USES THEREOF” (BeyondSpring Pharmaceuticals, Inc., priority 2019, published 2022).

Legend:
Hepa 1-6 tumor cells = experiment: In vivo efficacy in subcutaneous Hepa 1-6 mouse liver cancer model; parameters: species or system C57BL/6 mice; details: p.o.
Experimental: The study evaluated preclinically in vivo therapeutic efficacy of tucaresol and Compound C02 as a single agent in the treatment of subcutaneous Hepa 1-6 liver cancer models in C57BL/6 mice.
Cell Culture: The Hepa 1-6 tumor cells were maintained in vitro as a monolayer culture in DMEM medium supplemented with 10% fetal bovine serum at 37° C. in an atmosphere of 5% CO2 in air. The cells in an exponential growth phase were harvested and counted for tumor inoculation.
Tumor Inoculation: Each C57BL/6 mouse was subcutaneously inoculated at the right flank with Hepa 1-6 tumor cells (5×10^6) in 0.1 ml of PBS for tumor development. The date of tumor cell inoculation was denoted as day 0.
Randomization: The randomization started when the mean tumor size reached approximately 100-150 mm^3 in each model. […]
After tumor cell inoculation, the animals were checked daily for morbidity and mortality. During routine monitoring, the animals were checked for any effects of tumor growth and treatments on behavior such as mobility, food and water consumption, body weight gain/loss (body weights will be measured twice per week after randomization), eye/hair matting and any other abnormalities. Mortality and observed clinical signs were recorded for individual animals in detail. […]
Tumor growth inhibition (TGI): TGI % is an indication of antitumor activity, and expressed as: TGI (%)=100×(1−T/C). […]

MC-38 tumor cells = experiment: In vivo efficacy in subcutaneous MC-38 murine colorectal cancer model (Example 9); parameters: species or system C57BL/6 mice
Experimental: This study evaluated preclinically the in vivo therapeutic efficacy of Compound C02 as a single agent and in combination with anti-PD-1 antibody in the treatment of subcutaneous MC-38 colorectal cancer models in C57BL/6 mice.
Treatment regimen may be changed per BW loss or other adverse effect according to rules set forth and/or client requests. When dosed on the same day, vehicle for CO2 was administered about 1-2 hours after the dosing of anti-PD1 or control IgG.
The […] tumor cells were maintained in vitro as a monolayer culture in RPMI-1640 supplemented with 10% fetal bovine serum at 37° C. in an atmosphere of 5% CO2 in air. The cells in an exponential growth phase were harvested and counted for tumor inoculation. […]
After tumor cells inoculation, the animals were checked daily for morbidity and mortality. During routine monitoring, the animals were checked for any effects of tumor growth and treatments on behavior such as mobility, food and water consumption, body weight gain/loss (body weights will be measured twice per week after randomization), eye/hair matting and any other abnormalities. Mortality and observed clinical signs were recorded for individual animals in detail. […]
Rectal temperature was recorded without anaesthesia on the day prior to the first dosing and on the day after the last oral dose.

O=Cc1c(OCc2ccc(C(=O)O)cc2)cccc1OC1O[C@H](CO)[C@@H](O)[C@H](O)[C@H]1O (stereo partly drawn) [Compound C02]
efficacy of once a day for five days (QD×5) against every-other-day administration (Hepa 1-6 tumor cells): greater efficacy than every-other-day administration
time of treatment after which the benefits were especially apparent (MC-38 tumor cells; QDx5, as a monotherapy or in combination with anti-PD1): 15 to 20 days
dose response of efficacy (in words) (MC-38 tumor cells; QDx5 dosing, down to 10 mg/kg QDx5): inverse dose response relationship
